Key:
[1] = system: mesenchymal stem cells from bone marrow (BM-MSC); assay: Dislocation of BM-MSCs with Trypsin/EDTA after pretreatment, and reseeding; format: cell-based; settings: for effect against cell dislocation and clumping: 3 min Trypsin/EDTA; for cell proliferation (yield and viability) after reseeding: pretreatment before dislocation, 7 days in drug-free medium, 5000 cells/cm^2
Procedure: Subconfluent BM-MSCs were subjected to 4 h pretreatment (10 μM Blebbistatin or 10 μM Y-27632 vs control) and subsequent incubation for 3 min. with Trypsin/EDTA at 37° C. Cell counts were determined after dislocation of the cells from the surface of tissue culture flasks without specific coating (A). […] Dislocated cells are devoid of aggregates in drug-treated condition. […] Cells were reseeded (all conditions at same density: 5000 cells/cm^2) and cultured for additional 7 days in drug-free medium. After 7 days cell counts (B) and viability (C) were determined. […] An increase in cell proliferation (yield and viability) by Blebbistatin and less for Y-27632 treatment before dislocation in the subsequent drug-free passage (day 7) was also observed.

[2] = system: stem cells from cord blood (CB-USSCs); assay: CB-USSCs on PTFE vessel material; format: cell-based; settings: 10 μM, 3 days on PTFE-vessel material
Procedure: USSCs were cultured with 10 μM Bb for 3 days on repellent PTFE-vessel material compared to control cultures.

[3] = system: BM-MSC cultures; assay: Cell cycle profiles (G1/G0 and G2) by propidium iodide FACS with continuous BrdU incorporation; format: cell-based; settings: suspension/shaking culture in deep-wells, up to 3 days
Text: (§1) BM-MSC cultures were allowed to incorporate BrdU continuously and were sampled at different points of time (up to 3 days). Most cells are in G1/G0 phase (very dense culture), but there are also some G2-cells present. Absence of >4N cells (no multinucleated cells detected).
as §1, with “also” for “also some”, “detected). During continuous treatment in adherent T-flasks culture (G2/M) slight slowing down of the cell cycle was observed.” for “detected).”

[4] = system: mesenchymal stem cells from bone marrow (BM-MSC); assay: BM-MSCs seeded on microcarriers for suspension culture; format: cell-based
Procedure: BM-MSCs were seeded on microcarriers for suspension culture in presence or absence of 10 μM Blebbistatin and allowed to proliferate for 6 days. After 24 h incubation without agitation the culture was sampled to determine cell count, Glucose consumption and cell seeding. After 5 additional days of incubation with agitation Glucose consumption (A), Lactate production (B), cell count (C) and cell seeding on carriers (DAPI-stain of cells on carrier, FIG. 11) were determined again. […] Accordingly, Blebbistatin has a protective effect on the cells resulting in enhanced proliferation after 6 days growth on microcarriers.

[5] = system: mesenchymal stem cells from bone marrow (BM-MSCs); assay: Cell aggregation of BM-MSCs in suspension (deep-well) culture; format: cell-based; settings: for cell clustering: suspension deep-well
Procedure: (§2) Cell aggregation (A), cell survival (B) and apoptosis (C) were assayed in presence or absence of different Blebbistatin concentrations up to seven days. ROCK inhibitor (Y-27532) was used as a positive control. Cells were added to deep-wells not supporting adherent growth. Different concentrations of Blebbistatin and Y-27632 were tested in suspension (deep-well, 130 RPM) and adhesion (six-well) culture on BM-MSCs (media containing 10% FBS).
(§3) B: Live cells were quantified by FACS using dye-exclusion assay (propidium iodide). […] The survival-enhancing effect of Blebbistatin appeared concentration dependent peaking at 10 μM and decreasing at both higher and lower concentrations of Blebbistatin. C: Apoptotic cells were quantified by FACS using Annexin V-assay (propidium iodide).

[6] = system: mesenchymal stem cells from bone marrow (BM-MSCs); assay: Apoptosis by Annexin V staining and FACS; format: cell-based
Procedure: as §2, §3

[7] = system: mesenchymal stem cells from bone marrow (BM-MSC); assay: BM-MSC attachment and proliferation on repellent Teflon foil; format: cell-based; settings: 10 μM
Procedure: MSCs were cultured with 10 μM Bb for 4 days on repellent Teflon® foil and the cells attached to the foil were counted on day 4. Bars represent the number of cells per well. Control cultures: BM-MSCs in DMSO or PBS without inhibitor. […] Thus, BM-MSCs attach and proliferate on Teflon® foil.
MSCs were cultured with 10 μM Bb on repellent Teflon® foil until confluency was reached, the cells attached to the foil were counted on day 6 after cell seeding. Bars represent the number of cells per well. Control cultures: BM-MSCs in DMSO or PBS without inhibitor.

[8] = system: BM-MSCs; assay: Attachment of BM-MSCs to hydrophobic side of Lumox-biofoil bag; format: cell-based; settings: 10 μM, 48 h treatment
Procedure: Colony and attached cells observed after 48 h treatment with <0.1% DMSO are shown. No significant attachment of cells could be observed.
Colony and attached cells observed after 48 h treatment with 10 μM Blebbistatin are shown. […] Thus, if compared to FIG. 6 (control), treatment with Blebbistatin results in an increased affinity of BM-MSCs to this surface.

[9] = system: human pluripotent stem cells; settings: clonal density and suspension conditions; cited from earlier work
[10] = system: human embryonal stem cells (hEST); assay: Cryopreservation recovery of human embryonal stem cells; format: cell-based
Text: Usually only cell clusters can be cryopreserved, but not single ES cells.
Moreover, adding Blebbistatin before freezing is beneficial for cryopreserving single hESCs.

[11] = system: human Embryonic Stem Cells (hESCs); assay: Post-split attachment of hESCs on Matrigel-coated dishes in X-VIVO medium; format: cell-based
Procedure: The cells were cultured in defined X-VIVO medium containing no serum or animal-derived components on culture dishes coated with Matrigel®. A: No treatment with inhibitor (control), B: Transient treatment with 10 μM Blebbistatin (left micrograph: 4-fold magnification, right micrograph: 10-fold magnification), C: Culture 1 day after withdrawal of Blebbistatin. The post-split attachment of hESCs in X-VIVO has been low (A: 5-15%). When the culture was split (EDTA passage), the medium was supplemented with 10 μM of Blebbistatin. This increased the attachment of hESCs dramatically (B: 80-95%) compared to the post-split attachment of Blebbistatin-free hESC culture in X-VIVO. In fact, even the individualized hESCs attached very well. The media of the culture was replaced after 24 h with Blebbistatin-free X-VIVO to see how the cells stay attached and proliferate without Blebbistatin.

[12] = system: mesenchymal stem cells from bone marrow (BM-MSCs); format: cell-based
Procedure: as §2, with “FBS). […] B: Live cells were quantified by FACS using dye-exclusion assay (propidium iodide). […] The survival-enhancing effect of Blebbistatin appeared concentration dependent peaking at 10 μM and decreasing at both higher and lower concentrations of Blebbistatin. C: Apoptotic cells were quantified by FACS using Annexin V-assay (propidium iodide).” for “FBS).”

[13] = system: stem cells from cord blood (CB-USSC); assay: CB-USSC attachment and proliferation on repellent Teflon foil; format: cell-based; settings: 10 μM
Procedure: USSCs were cultured with 10 μM Bb for 4 days on repellent Teflon® foil and the cells attached to the foil were counted on day 4. Bars represent the number of cells per well. Control cultures: CB-USSCs in DMSO or PBS without inhibitor. […] Thus, CB-USSCs attach and proliferate on Teflon® foil.
USSCs were cultured with 10 μM Bb on repellent Teflon® foil until confluency was reached, the cells attached to the foil were counted on day 6 after cell seeding. Bars represent the number of cells per well. Control cultures: CB-USSCs in DMSO or PBS without inhibitor.
USSCs were cultured with 10 μM Bb on repellent Teflon® foil dish and counted on day 4 after cell seeding. Bars represent the number of cells per well. Control cultures: CB-USSCs in DMSO or PBS without inhibitor. […] USSC attachment and proliferation on Teflon® foil in serum-reduced (EGM2) media is enhanced by myosin inhibition.
USSCs were cultured with 10 μM Bb on repellent Teflon® foil dish and counted on day 4 after cell seeding. Bars represent the number of cells per well. Control cultures: CB-USSCs in DMSO or PBS without inhibitor.

[14] = deep well culture, up to seven days, overall statement

In the case of `C[C@@H](N)[C@H]1CC[C@H](C(=O)Nc2ccncc2)CC1` [Y-27632], the “effect against cell dislocation and clumping” value ([1]; 10 μM, 4 h pretreatment) is reported as “protective effects against cell dislocation and clumping” and the “cell proliferation (yield and viability) after reseeding” value [1] is reported as “less”.

For `Cc1ccc2c(c1)C(=O)C1(O)CCN(c3ccccc3)C1=N2` (stereo not drawn) [Blebbistatin], the “cell spreading and aggregate formation” value [2] was “Markedly enhanced cell spreading but no aggregate formation”, the “effect on cell cycle” value [3] was “no significant effect” and the “cell seeding on microcarriers” value ([4]; 10 μM, after 24 h without agitation) was “markedly increased”. The Glucose consumption ([4]; 10 μM, after 6 days) was “no effect”, the Lactate production ([4]; 10 μM, after 6 days) was “no effect” and the cell number ([4]; 10 μM, after 6 days on microcarriers) was “significantly increased”. The “cells adhering to microcarriers (DAPI-stain micrographs)” value ([4]; after 6 days of incubation) was “much more cells adhere to the microcarriers”, the cell clustering ([5]; 10 μM) was “prevents cell clustering” and the cell aggregation [5, 14] was “prevents or at least greatly reduces cell aggregation”. The cell clustering ([5]; less than 10 μM) was “formed a single aggregate”, the “concentration of greatest anti-apoptotic effect” value [6] was 10 µM and the “apoptotic cells (Annexin V-assay)” value ([6]; 10 μM, versus DMSO, PBS controls) was “protected against apoptosis”. For the same compound, the anti-apoptotic effect ([6]; below 5 μM) was “merely a limited effect”, the apoptosis [6, 14] was “decreases apoptosis” and the “cell death in suspension culture (AnnexinV staining)” value ([6]; suspension/shaking conditions) was “eliminates cell death in suspension culture”. The “anti-apoptotic effect relative to Y-27632” value ([6]; various inhibitor concentrations) was “comparable or stronger than that of Y-27632”, the “cell yield (cells attached to foil per well)” value ([7]; day 4) was “significant increase in cell yield” and the “confluency on Teflon foil” value ([7]; day 6) was “do not form a completely confluent layer”. The “cell yield (cells attached to foil per well)” value ([7]; day 6 after cell seeding) was “No differences in cell yield”, the “effect against cell dislocation and clumping” value ([1]; 10 μM, 4 h pretreatment) was “protective effects against cell dislocation and clumping” and the “cell counts dislocated from tissue culture flasks” value ([1]; 10 μM, 4 h pretreatment, 3 min Trypsin/EDTA at 37° C.) was “Fewer cells are dislocated”. The “cell proliferation (yield and viability) after reseeding” value [1] was “enhanced proliferation and viability”, the “cells attached to hydrophobic surface” value [8] was “A significant number of cells is attached” and the “survival rate of human pluripotent stem cells” value [9] was “increases the survival rate”. The “cryopreservation recovery of single hESCs” value [10] was “increases the cryopreservation recovery of single hESCs to the comparable level of the recovery of hESC clusters”, the “effect of adding before freezing on cryopreserving single hESCs” value ([10]; added before freezing) was “beneficial” and the “post-split attachment of hESCs” value ([11]; 10 μM, EDTA passage, X-VIVO medium, Matrigel) was 80-95%. The “attachment and proliferation after withdrawal of Blebbistatin” value ([11]; medium replaced after 24 h, 1 day after withdrawal) was “no significant changes could be observed”, the “optimum concentration for eliminating cell death” value [12] was 10 µM and the cell survival [12, 14] was “enables cell survival”. The “cell death rates (propidium iodide, FACS)” value ([12]; especially at 10-50 μM, adhesive/static or suspension/shaking) was “significantly eliminates cell death”, the “concentration at which survival-enhancing effect peaks” value ([12]; suspension, decreasing at higher and lower concentrations) was 10 µM and the “cell yield (cells attached to foil per well)” value ([13]; day 4) was “highly significant increase in cell yield”. The “proliferation (cells per well)” value ([13]; day 4, low serum EGM2+Dex-media (3% serum)) was “significantly enhanced proliferation”, the “cell yield (cells per well)” value ([13]; day 4, serum-free MSCGM-CD medium) was “No apparent increase in cell yield” and the “confluency on Teflon foil” value ([13]; day 6) was “form confluent layers”. The “cell yield (cells attached to foil per well)” value ([13]; day 6 after cell seeding) was “significant increase in cell yield”.
